In data set [1] the test system is thymus, spleen and duodenum. The data set can be described thus: TUNEL analysis of IR- and doxorubicin-induced apoptosis in renewable tissues. It is filed as in vivo, wild-type mice. The protocol:
To assess the protective effects of Compound 1 on renewable tissues, wild-type mice were injected with Compound 1 at a dose of 4 mg/kg IP for 19 hours before 4 Gy ionizing radiation (IR) or exposure to doxorubicin (20 mg/kg).

Data set [2] deals with p53. The data set can be described thus: RT-qPCR of CDKN1A/p21 in MCF-7 cells (marker of p53 activity). It is filed as cell-based, human. The note with it: MCF-7, 0-100 μg/ml. (In general: In qPCR the cycle at which signal appears reflects the starting amount.)
Procedure: (§2) To assess the impact of Compound 1 and preserved p53 on apoptosis, human breast cancer cells MCF-7 were treated with increasing doses (0-100 μg/ml) of Compound 1. […] The expression level of the pro-apoptotic gene p21 was used as surrogate marker to assess the activity of p53. […] C57BL/6 mice were treated with, PBS, Nutlin 3A (200 mg/kg) or Compound 1 (200 mg/kg). The mice were sacrificed 24 hours later, and caspase-3 expression was assessed in thymus, a tissue very sensitive to p53-induced apoptosis.
Data set [3] deals with MCF-7 xenograft tumors. Nature of the data set: growth of MCF-7 xenograft tumors. It is filed as in vivo. To be noted: 10 mg/kg IP daily, compared to vehicle-treated mice. The source says:
Expression of GLUT1 and PGK1 serves as markers of aggressive biological behavior and identifies a worse prognosis in breast cancer patients.

Data set [4] concerns EZH2. The data set can be described thus: immunostaining of EZH2 and H3K27me3 in renewable tissues. It is filed as in vivo, mice. The note with it: thymus, spleen and duodenum, 4 mg/kg, 19 hours. The protocol:
(§1) Half-life of EZH2 was measured in splenocytes isolated from wildtype mouse that had been pretreated with 2 μg/ml of Compound 1 for 24 hours followed by 100 μg/ml cycloheximide (CHX). […] To further confirm the effect of Compound 1 on EZH2 and H3K27me3, thymocytes isolated from wildtype mice were treated with 0, 0.5, 1, 3 or 5 μg/ml of Compound 1 for 12 hours. […] Furthermore, to validate the effect of Compound 1 on EZH2 and H3K27me3 in renewable tissues, wildtype mice were treated with 0 or 4 mg/kg of Compound 1 for 19 hours.

For data set [5], the target named is T1, MDM2/MDMX complex (Homo sapiens, UniProt O15151+Q00987).
T1 construct: expressed in transfected cells
Nature of the data set: cell-based mammalian two-hybrid assay.

Data set [6] relates to EZH2. The data set can be described thus: half-life of EZH2 in splenocytes with cycloheximide. It is filed as cell-based, mouse. To be noted: 2 μg/ml 24 hours, then 100 μg/ml cycloheximide. How it is done: as §1
For data set [7], the target named is MDM2/MDMX-mediated p53 ubiquitination (Homo sapiens, UniProt O15151+Q00987). Nature of the data set: cell-free assay with purified proteins, p53 ubiquitination. It is filed as biochemical.
For data set [8], the system named is MCF-7 tumor xenografts. Nature of the data set: immunohistochemical analysis of MCF-7 tumor xenografts. It is filed as in vivo. To be noted: 10 mg/kg IP daily, relative to vehicle-treated mice.
Data set [9] deals with HIF1. The data set can be described thus: RT-qPCR of ALDHA in MCF-7 cells (marker of HIF1 activity). It is filed as cell-based, human. The note with it: MCF-7, 0-100 μg/ml.
Source text: The expression level of ALDHA was used as surrogate marker to assess the activity of HIF1.
In data set [10] the test system is EZH2. The data set can be described thus: Western blot of EZH2 and H3K27me3 in thymocytes. The note with it: thymocytes, 0.5, 1, 3 or 5 μg/ml, 12 hours. It is filed as cell-based, mice. The protocol: as §1
(Immunoblotting shows a protein as a band on a membrane.)

Data set [11] concerns human breast cancer cells MCF-7. Nature of the data set: MCF-7 cell proliferation. It is filed as cell-based. The note with it: MCF-7, 10 μM. The protocol:
To assess the impact of Compound 1 on cell proliferation, human breast cancer cells MCF-7 were treated with 10 μM of Compound 1.

Data set [12] addresses T2, MDM2/MDMX complex (Mus musculus, UniProt O35618+P23804).
T2 construct: endogenous in cells; host or cells: primary splenocytes from wild-type mice
The data set can be described thus: immunoprecipitation with anti-Mdmx antibody and immunoblot in splenocytes. It is filed as cell-based. The note with it: splenocytes from wild-type mice, 2 or 5 μg/ml, 24 hour. How it is done: A small molecule compound, referred to herein as Compound 1 was used to dissociate and reduce the MDM2/MDMX complex, and preserve p53. […] To further verify this finding, splenocytes from wild-type mice were treated with 2 or 5 μg/ml of Compound 1, or vehicle for 24 hour.

Data set [13] deals with thymocytes. The data set can be described thus: IR-induced killing of thymocytes, cell count. It is filed as cell-based, mice. The protocol:
Thymocytes isolated from wildtype mice were treated with 2 μg/ml of Compound 1 for 24 hours, in absence or presence of 2 μM GSK126, followed by 0 Gy or 5 Gy IR. Cell numbers were counted 48 hours after IR to assess the effect of Compound 1 and EZH2 inhibition on IR-induced killing.

The test system of data set [14] is thymus, spleen and duodenum. The data set can be described thus: TUNEL analysis of IR- and doxorubicin-induced apoptosis in renewable tissues. To be noted: doxorubicin 20 mg/kg alone (Compound 1 0 mg/kg). It is filed as in vivo, wild-type mice.
Data set [15] concerns thymus. The data set can be described thus: acute toxicity experiment, caspase-3 in thymus. The note with it: 200 mg/kg, 24 hours.
Procedure: as §2

SMILES strings stand for the structures.

T1 sequence (Q00987 whole entry): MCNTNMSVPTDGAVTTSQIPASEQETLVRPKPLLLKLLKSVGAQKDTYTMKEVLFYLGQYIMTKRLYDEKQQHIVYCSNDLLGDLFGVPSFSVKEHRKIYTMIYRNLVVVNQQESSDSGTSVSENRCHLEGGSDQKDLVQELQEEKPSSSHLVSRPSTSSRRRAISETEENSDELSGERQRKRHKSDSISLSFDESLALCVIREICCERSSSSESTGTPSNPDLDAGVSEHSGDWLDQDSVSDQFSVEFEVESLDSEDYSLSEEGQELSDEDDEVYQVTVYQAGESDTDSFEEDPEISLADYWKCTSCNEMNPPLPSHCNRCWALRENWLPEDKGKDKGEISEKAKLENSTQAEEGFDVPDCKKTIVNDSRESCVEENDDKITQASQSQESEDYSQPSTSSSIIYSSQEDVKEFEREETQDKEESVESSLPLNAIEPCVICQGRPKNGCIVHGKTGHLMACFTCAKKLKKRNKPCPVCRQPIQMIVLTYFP
T1 sequence (O15151 whole entry): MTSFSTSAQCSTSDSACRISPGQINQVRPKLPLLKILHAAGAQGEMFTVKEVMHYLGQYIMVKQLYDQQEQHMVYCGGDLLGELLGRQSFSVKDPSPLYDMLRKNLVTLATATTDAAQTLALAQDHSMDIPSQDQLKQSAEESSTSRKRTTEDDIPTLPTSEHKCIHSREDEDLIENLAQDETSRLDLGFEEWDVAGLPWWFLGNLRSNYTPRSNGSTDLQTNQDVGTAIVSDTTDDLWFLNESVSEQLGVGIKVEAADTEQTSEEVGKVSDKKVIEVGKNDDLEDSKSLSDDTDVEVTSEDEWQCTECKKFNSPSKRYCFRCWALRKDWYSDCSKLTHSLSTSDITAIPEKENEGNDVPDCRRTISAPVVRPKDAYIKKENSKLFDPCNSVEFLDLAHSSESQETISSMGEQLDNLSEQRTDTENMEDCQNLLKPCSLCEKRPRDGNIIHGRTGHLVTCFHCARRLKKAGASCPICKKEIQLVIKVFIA
Sequence of MDM2/MDMX-mediated p53 ubiquitination (Q00987 whole entry): as the sequence (Q00987 whole entry) above
Sequence of MDM2/MDMX-mediated p53 ubiquitination (O15151 whole entry): as the sequence (O15151 whole entry) above
T2 sequence (P23804 whole entry): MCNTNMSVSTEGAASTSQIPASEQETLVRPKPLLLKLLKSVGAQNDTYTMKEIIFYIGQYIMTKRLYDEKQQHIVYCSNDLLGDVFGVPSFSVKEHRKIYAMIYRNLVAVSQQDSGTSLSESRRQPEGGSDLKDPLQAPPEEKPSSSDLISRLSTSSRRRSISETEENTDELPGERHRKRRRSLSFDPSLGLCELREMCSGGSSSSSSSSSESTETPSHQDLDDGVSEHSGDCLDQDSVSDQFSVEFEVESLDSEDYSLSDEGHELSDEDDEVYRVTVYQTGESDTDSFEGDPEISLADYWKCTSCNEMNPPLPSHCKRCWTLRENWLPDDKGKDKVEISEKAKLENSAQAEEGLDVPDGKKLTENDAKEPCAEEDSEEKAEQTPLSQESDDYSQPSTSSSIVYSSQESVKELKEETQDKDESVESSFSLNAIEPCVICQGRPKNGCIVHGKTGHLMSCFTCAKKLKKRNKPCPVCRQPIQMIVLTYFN
T2 sequence (O35618 whole entry): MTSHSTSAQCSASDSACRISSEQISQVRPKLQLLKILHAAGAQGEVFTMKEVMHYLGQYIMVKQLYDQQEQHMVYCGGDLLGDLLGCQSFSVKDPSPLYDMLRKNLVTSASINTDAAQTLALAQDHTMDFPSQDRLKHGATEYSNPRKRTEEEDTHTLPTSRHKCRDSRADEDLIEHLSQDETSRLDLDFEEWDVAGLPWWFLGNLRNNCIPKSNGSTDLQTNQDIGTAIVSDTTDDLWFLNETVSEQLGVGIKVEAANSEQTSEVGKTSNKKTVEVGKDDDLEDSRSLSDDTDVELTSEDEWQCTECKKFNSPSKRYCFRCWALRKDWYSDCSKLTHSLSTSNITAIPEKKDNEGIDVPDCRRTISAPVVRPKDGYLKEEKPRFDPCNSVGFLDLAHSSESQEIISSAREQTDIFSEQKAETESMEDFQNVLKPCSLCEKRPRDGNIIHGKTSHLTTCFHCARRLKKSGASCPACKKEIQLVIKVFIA

`COC(=O)C1(Cc2ccc(C)c(C/C=C(/C)Cl)c2)OC(=O)C(O)C1c1ccc(O)cc1` (stereo not drawn) [Compound 1]: the TUNEL apoptosis was 1 ± 0.3% in data set [1] (Duodenum, 4 Gy IR, Compound 1 4 mg/kg IP 19 hours before); 0% in data set [1] (Duodenum, Control (no IR or doxorubicin), Compound 1 4 mg/kg IP); 3 ± 0.1% in data set [1] (Duodenum, doxorubicin 20 mg/kg, Compound 1 4 mg/kg IP 19 hours before); 7 ± 0.2% in data set [1] (Spleen, 4 Gy IR, Compound 1 4 mg/kg IP 19 hours before); 0% in [1] (Spleen, Control (no IR or doxorubicin), Compound 1 4 mg/kg IP); 1 ± 0.1% in [1] (Spleen, doxorubicin 20 mg/kg, Compound 1 4 mg/kg IP 19 hours before). Moreover, the TUNEL apoptosis worked out at 22 ± 4% in [1] (Thymus, 4 Gy IR, Compound 1 4 mg/kg IP 19 hours before); 0% in data set [1] (Thymus, Control (no IR or doxorubicin), Compound 1 4 mg/kg IP); 1 ± 0.2% in data set [1] (Thymus, doxorubicin 20 mg/kg, Compound 1 4 mg/kg IP 19 hours before). For the same compound, the “mRNA level of p21” value in [2] is on record as “little induction”. For the same compound, the tumor growth entry in data set [3] is on record as “significant growth delay”. For the same compound, the EZH2 immunostaining result in data set [4] was “induction”. Also, the H3K27me3 immunostaining result in data set [4] is “induction”. Further, the “disassociation of the MDM2/MDMX complex” value in [5] is “dose-dependent disassociation”; in [12], “disassociation”. For the same compound, the “half-life of EZH2” value in data set [6] is given as “prolonged half-life”. Also, in data set [7], the “MDM2/MDMX-mediated p53 ubiquitination and degradation” value was “blocking MDM2/MDMX-mediated p53 ubiquitination and degradation”. Besides, in data set [8], the “expression of PUMA in tumors” value is reported as “little to no change”. Further, the “expression of p21 in tumors” value in data set [8] is reported as “little to no change”. Besides, in [8], the “glycolytic marker GLUT1 in tumors” value was “lower level”. Besides, the “glycolytic marker PGK1 in tumors” value in [8] is given as “lower level”. The “p53 level in tumors” value in data set [8] is listed as “readily detectable levels of p53”. In data set [8], the “proliferation marker Ki-67 in tumors” value is on record as “lower level”. The “mRNA level of ALDHA” value in data set [9] is “significant decrease”. The “level of EZH2” value in [10] is recorded as “significantly induced levels”. For the same compound, the “level of H3K27me3” value in [10] is “significantly induced levels”. Further, the cell proliferation result in data set [11] is “considerable reduction in cell proliferation”. In addition, in [13] (2 μg/ml 24 hours, 5 Gy IR, counted 48 hours after IR), the IR-induced cell death result was “significantly attenuated”.
For `COc1cccc2c1C(=O)c1c(O)c3c(c(O)c1C2=O)C[C@@](O)(C(=O)CO)C[C@@H]3O[C@H]1C[C@H](N)[C@H](O)[C@H](C)O1` [Doxorubicin, doxorubicin], the TUNEL apoptosis in data set [14] (Duodenum) stood at 15 ± 1.1%; in data set [14] (Spleen) it was 22 ± 0.2%; in data set [14] (Thymus) it was 15 ± 0.1%.
Take `CC[C@H](C)n1cc(C)c2c(C(=O)NCc3c(C)cc(C)[nH]c3=O)cc(-c3ccc(N4CCNCC4)nc3)cc21` [GSK126, reference compound]: the “protective effect of Compound 1 against IR-induced cell death” value in data set [13] (2 μM GSK126 with 2 μg/ml Compound 1, 5 Gy IR) was “reversed”.
`COc1ccc(C2=N[C@@H](c3ccc(Cl)cc3)[C@@H](c3ccc(Cl)cc3)N2C(=O)N2CCNC(=O)C2)c(OC(C)C)c1` [Nutlin 3A]: the “caspase-3 activation (apoptosis) in thymus” value in [15] is “considerable apoptosis”.
